System: sar-BGC (sarD) expression in WT SAL
Test: sarD transcript levels by qRT-PCR after lactate supplementation of WT SAL
Format: cell-based, Streptococcus salivarius K12
Conditions: WT SAL at late-exponential growth (A600 ~ 2.0), fresh THY with sodium lactate, 15 minutes; relative to WT-LE growth; three biological replicates
Experimental: Fig 2 SAL upregulates sar-BGC expression in concert with environmental acidification. (A) Wild-type (WT) SAL was grown in THY broth, and samples were collected at the indicated time points. Growth medium pH, sar-BGC (sarD) transcript levels, and bacterial growth by absorption at wavelength 600 nm (A600) were determined. Right y-axes represent fold change in sar-BGC transcript levels (green) and A600 (red), whereas the left y-axis represents pH of the growth medium (black). Fold changes in transcript levels at indicated time points relative to starting culture (time point t = 0 h) are shown. Data are mean ± standard deviation for three biological replicates. (B) WT SAL grown in THY to late-exponential growth phase (LE, A600 ~ 2.0) was harvested by centrifugation, suspended in THY broth adjusted to indicated pH, and incubated for 15 minutes. […] P values assessed by t-test analyses relative to WT LE growth are shown (n.s, not significant; *, P < 0.05; ****, P < 0.0001). […]
SAL and other lactic acid bacteria acidify their environment via lactic acid production during their growth. […] After 15 min incubation, cells were collected and sarD transcript levels in each pH were assessed by quantitative real-time PCR (qRT-PCR). […] To test whether lactate acts as a signal for the induction of sar-BGC expression, we assessed sarD transcript levels in SAL grown in the presence of lactate. […]

CC(O)C(=O)[O-].[Na+] (stereo not shown) [lactate, sodium lactate]
induction of sar-BGC expression (sarD transcript levels): did not induce sar-BGC expression

— article PMC12186490, “Environmental pH controls antimicrobial production by human probiotic Streptococcus salivarius” (Journal of Bacteriology, 2025)
